Reference: patent US7339059B2, “Benzofurans and indols” (Active Biotech AB, priority 2004, dated 2008)

Experiments:
[1] = biological target: T1, CCR1 receptor (Homo sapiens, UniProt P32246); experiment: In vitro Ca2+-flux assay on human monocytes (THP-1), MIP-1α stimulated; format: cell-based; conditions: block of MIP-1α induced Ca2+-flux in THP-1 cells; 2,5-dimethylpiperazine derivatives tested as racemic mixtures
T1 construct: host or cells: THP-1
T1 sequence (P32246 1-355): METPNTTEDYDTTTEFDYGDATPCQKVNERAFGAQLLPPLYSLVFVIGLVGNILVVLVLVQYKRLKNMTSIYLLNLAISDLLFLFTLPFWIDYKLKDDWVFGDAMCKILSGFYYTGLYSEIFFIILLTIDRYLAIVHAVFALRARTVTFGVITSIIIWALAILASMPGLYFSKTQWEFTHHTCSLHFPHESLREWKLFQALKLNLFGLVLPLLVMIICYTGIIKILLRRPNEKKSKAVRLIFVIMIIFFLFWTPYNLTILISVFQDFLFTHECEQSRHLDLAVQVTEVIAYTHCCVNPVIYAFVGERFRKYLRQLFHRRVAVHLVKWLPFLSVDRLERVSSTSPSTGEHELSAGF
Method: The binding of Mip-1α at the CCR1 receptor leads to an increase of intracellular calcium levels. The ability of the compounds of the invention to block this biologic response of the CCR1 receptor is determined in the Ca^2+-flux assay.
In Vitro Ca^2+-Flux Assay on Human Monocytes
• 1. Cell Culture: • a) THP-1 (ATCC Cat# TIB202) • b) Tissue culture medium: RPMI 1640 with Ultraglutamine 1 supplemented with 10% (v/v) foetal calf serum. This medium is hereinafter referred to as “growth medium”. • 2. Assay buffer: HBSS (Hanks' balanced salts solution), 20 mM HEPES, 1 mM CaCl2, 1 mM MgCl2, 2.5 mM Probenecid, pH 7.4. • 3. Fluo-4AM (Molecular Probes Cat # F14201) • 4. Pluronic® F-127 (Molecular Probes Cat # P-6867) • 5. The compounds of the invention were dissolved in DMSO. A serial dilution was made and nine concentrations of each compound were screened to generate a dose curve from which the IC50 value was determined. • 6. MIP-1α (Peprotech EC Ltd Cat# 300-08) • 7. Victor^2 1420 (Perkin Elmer) • 8. Microlite™^2+ (Dynex Cat # 7572) Assay Procedure:
THP-1 cells were grown in T-75 cm^2 flasks in growth medium at 37° C. in 5% CO2. The cells were harvested by centrifugation and resuspended in assay buffer. The cells were then loaded with 5 μM Fluo-4 and 0.02% pluronic acid (final concentrations) at 37° C. in 5% CO2 for 30 min. The excess dye was removed by washing with assay buffer. The cells were resuspended and 10^5 cells/well were added in a Microlite plate containing compounds and then incubated for 15 minutes at 37° C. in 5% CO2. The cells were then stimulated with MIP-1α and changes in intracellular free Ca^2+ concentration were measured with a Victor^2.
Using the procedures set forth in the competitive affinity binding assay and the Ca^2+-flux assay, various compounds of the invention were tested for their ability to block Ca^2+-flux (IC50^Ca). The results of some examples and the Compounds A, B, C, and D are shown in Table 2 where all IC50-values are given in nM (nano Molar). Table 2 exemplifies the invention without limiting the scope thereof.

[2] = In vivo bioavailability in the mouse (cassette dosing); conditions: female SJL/N Tac mice; for half-life / clearance: mouse, nominal dose 1 mg/kg; for half-life: plasma half-life; for clearance: plasma; for F: oral bioavailability, nominal dose 1 mg/kg iv and oral
Method: In Vivo Bioavailability in the Mouse
Female mice (SJL/N Tac) were given a single intravenous or oral dose of a mixture of 5 or 6 compounds per cassette (nominal dose: 1 mg/kg/compound) in a solution containing 0.5% N,N′-dimethylacetamide (DMA) and 15% sulfobutyl ether β-cyclodextrin (Captisol®). Blood samples were taken from one mouse per time point and dose group until 24 hour after respective administration. The dose formulations and plasma concentrations of each compound were determined by LC-MS/MS. The pharmacokinetic parameters were determined by non-compartmental analysis using WinNonlin Professional (version 4.0.1). The elimination rate constant, λ, was estimated by linear regression analysis of the terminal slope of the logarithmic plasma concentration-time curve. The area under the plasma concentration-time curve, AUC0-t, was calculated by using the linear/logarithmic trapezoidal rule. The AUCinf was calculated with the residual area estimated as Cz/λ. The calculated plasma concentration at the last time point, Cz, was obtained from the regression equation. The oral bioavailability (F) was calculated as: Foral=(AUCinf,po/AUCinf,iv)·(Doseiv/Dosepo). Pharmacodynamic Assays
The compounds of the invention show oral bioavailability in the mouse. Using the procedures set forth in the in vivo bioavailability assay, various compounds of the invention were tested for their clearance (CL; L/h/kg), plasma half-life (t1/2; hrs) as well as oral bioavailability (F; %) after administration of the nominal dose of 1 mg/kg of each compound. Table 3 exemplifies the invention, without limiting the scope thereof.

Row | SMILES | IC50 [1] [nM] | half-life [2] [h] | clearance [2] [mL/min/kg] | F [2] [%]
1 | Cc1ccc2cc(C(=O)N3C[C@@H](C)N(Cc4ccc(F)cc4)C[C@@H]3C)oc2c1 (racemic) [Compound 3.13, (trans)-4-(4-Fluorobenzyl)-1-(6-methyl-benzofuran-2-yl-carbonyl)-2,5-dimethylpiperazine] | 20 |  |  | 
2 | C[C@@H]1CN(C(=O)c2cc3cc(Cl)ccc3o2)[C@@H](C)CN1Cc1ccc(F)cc1 (racemic) [Compound 4.1, (trans)-1-(5-Chloro-benzofuran-2-yl-carbonyl)-4-(4-fluorobenzyl)-2,5-dimethylpiperazine] |  | 4.8 | 43.3 | 72
3 | COc1cccc2cc(C(=O)N3C[C@@H](C)N(Cc4ccc(F)cc4)C[C@H]3C)oc12 (racemic) [Compound A, (cis)-4-(4-Fluorobenzyl)-1-(7-methoxy-benzofuran-2-yl-carbonyl)-2,5-dimethylpiperazine, reference compound] | > 1000 |  |  | 
4 | O=C(c1cc2ccccc2o1)N1CCN(Cc2ccc(Cl)cc2)CC1 [Compound C, 4-(4-chlorobenzyl)-1-(benzofuran-2-yl-carbonyl)-piperazine, reference compound] | > 1000 |  |  | 
5 | COc1cccc2cc(C(=O)N3C[C@@H](C)N(Cc4ccc(F)cc4)C[C@@H]3C)oc12 (racemic) [Compound D, (trans)-4-(4-Fluorobenzyl)-1-(7-methoxy-benzofuran-2-yl-carbonyl)-2,5-dimethylpiperazine, reference compound] | > 1000 |  |  | 
6 | C[C@@H]1CN(C(=O)c2cc3cc(Cl)c(Cl)cc3[nH]2)[C@@H](C)CN1Cc1ccc(F)cc1 (racemic) [Compound 3.20, (trans)-(5,6-Dichloro-indol-2-yl-carbonyl)-4-(4-fluorobenzyl)-2,5-dimethylpiperazine] | 15 |  |  | 
7 | C[C@@H]1CN(C(=O)c2cc3cc(Br)ccc3o2)[C@@H](C)CN1Cc1ccc(F)cc1 (racemic) [Compound 3.1, (trans)-1-(5-Bromo-benzofuran-2-yl-carbonyl)-4-(4-fluorobenzyl)-2,5-dimethylpiperazine] | 12 | 7 | 15 | 53
